Patent publication US20030212123A1, “COX-2 selective carprofen for treating pain and inflammation in dogs” (Pfizer Inc., priority 1997, published 2003)
Where “and” joins values, the source holds several entries; their conditions need not be identical. Identical values can stand only once. Like-named read-outs stand apart in the source and are kept apart here.

Key:
[1] = Total plasma carprofen concentration by chiral HPLC, Example 3; assay type: in vivo, dog; settings: individual dogs
Description: (§1) The ether layer was separated, then back-extracted with 0.005 M Na2CO3, after which the organic phase was discarded by aspiration. The aqueous phase was buffered with 0.05 M citric acid pH 5.1, then was again extracted with diethyl ether:dichloromethane. The ether was then transferred to clean tubes, evaporated under a stream of nitrogen, and the residue reconstituted in HPLC mobile phase for analysis.
as §1

[2] = target: T1, COX-1 (Canis lupus familiaris, UniProt Q8HZR1); test: Canine whole blood ex vivo COX-1 activity (A23187-stimulated TXB2), Example 2; assay type: in vivo, dog; settings: for TXB2 Pg/mL/Well: group average; for inhibition at 2 mg/kg / inhibition at 10 mg/kg: dog, po, based on zero hour value, read-out: COX-1 activity Percent Inhibition
T1 construct: using an ex vivo procedure on canine whole blood; from tissue; host or cells: whole blood of dosed dogs, stimulated with calcium ionophore A23187
T1 sequence (Q8HZR1 28-603): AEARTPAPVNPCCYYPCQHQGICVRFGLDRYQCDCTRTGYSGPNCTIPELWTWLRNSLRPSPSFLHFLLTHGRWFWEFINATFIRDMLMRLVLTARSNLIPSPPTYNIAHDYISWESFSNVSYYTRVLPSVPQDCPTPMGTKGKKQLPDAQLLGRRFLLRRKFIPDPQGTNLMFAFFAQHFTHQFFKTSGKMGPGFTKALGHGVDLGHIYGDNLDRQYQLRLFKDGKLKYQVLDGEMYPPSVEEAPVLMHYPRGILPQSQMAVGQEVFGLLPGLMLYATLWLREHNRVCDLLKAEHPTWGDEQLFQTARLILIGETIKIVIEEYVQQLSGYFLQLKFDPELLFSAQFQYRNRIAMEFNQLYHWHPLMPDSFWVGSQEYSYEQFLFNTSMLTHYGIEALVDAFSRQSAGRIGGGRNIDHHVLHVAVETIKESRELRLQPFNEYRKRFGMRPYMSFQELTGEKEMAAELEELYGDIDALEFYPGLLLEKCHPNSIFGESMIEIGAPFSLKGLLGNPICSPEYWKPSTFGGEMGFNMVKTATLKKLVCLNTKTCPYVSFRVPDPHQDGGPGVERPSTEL
Description: Plasma dilution was not factored in said data values.

[3] = target: T1, COX-1; test: Ex vivo COX-1 whole blood assay (TXB2) run in the carrageenan study, Example 4; parameters: species or system dog; settings: 2 mg/kg PO, any of the timepoints tested
Description: The experiment was run in two replicates.
Table 5 illustrates that carrageenan induced almost a 4-fold increase in PGE2 synthesis in the whiffle ball over background levels.

[4] = Systemic clearance estimated from oral pharmacokinetics; assay type: in vivo, dog; settings: estimated from pharmacokinetics after oral 2 mg/lb to dogs, F assumed 1, AUC extrapolated to infinity
Method: where Css is the steady state plasma carprofen concentration, R0 is the input rate, and Cl is the systemic clearance.
where F is the bioavailability (assumed to be 1 for an implant), D is the oral dose, and AUC is the average area under the plasma carprofen concentration vs. time curve, extrapolated to infinity.
A total dose of 3.6 mg/lb or 8.4 mg/lb or 36 mg/lb would be required for 3, 7, or 30 day therapy, respectively. In summary, an implant containing 8.4 mg carprofen per lb body weight, releasing carprofen at a rate of 50 μg per lb of body weight per hr, maintains a plasma carprofen concentration of 10 μg/mL for 7 days. This will maintain 80% COX-2 inhibition for 7 days.

[5] = at equipotent anti-inflammatory activity with indomethacin, Holtsinger et al.; cited from earlier work
[6] = target: COX-2 (Canis lupus familiaris, UniProt Q8SPQ9); test: in vivo; settings: for PGE2 Pg/mL/Well: 2 mg/kg PO 30 min before carrageenan, exudate fluid, group average; for inhibition at 2 mg/kg: dog, po
Method: This objective of this study was to monitor in vivo COX-2 activity in a subcutaneously implanted chamber during an induced inflammation. The COX-2 enzyme can be detected by western analysis as early as 5 hours after carrageenan treatments (T. Kirchner et al., J. Pharmacol. Exp. Ther. (1997) 282, 1094-1101). […] Six beagle dogs had polyethylene “whiffle” golf balls approximately 4.2 cm in outer diameter surgically implanted under the skin just behind the shoulder blades.
The experiment was run in two replicates. […] The hair around the ball was shaved and the area was probed to locate a hole in the whiffle ball. This area was then marked and it was sterilized with 2% iodine tincture. […] EF samples were taken at 0, 5, and 24 hours after carrageenan injection.
The column was first washed with 10 mL of 0.1 M phosphate buffer then 10 mL water. The EF was then diluted 1:5 with 0.1 M phosphate buffer and added to the column. The column was washed with 10 mL of the phosphate buffer, then 10 mL of water. Finally, the PGE2 was removed from the column with 2.5 mL 95% ethanol.

COX-2, sequence (Q8SPQ9 18-604): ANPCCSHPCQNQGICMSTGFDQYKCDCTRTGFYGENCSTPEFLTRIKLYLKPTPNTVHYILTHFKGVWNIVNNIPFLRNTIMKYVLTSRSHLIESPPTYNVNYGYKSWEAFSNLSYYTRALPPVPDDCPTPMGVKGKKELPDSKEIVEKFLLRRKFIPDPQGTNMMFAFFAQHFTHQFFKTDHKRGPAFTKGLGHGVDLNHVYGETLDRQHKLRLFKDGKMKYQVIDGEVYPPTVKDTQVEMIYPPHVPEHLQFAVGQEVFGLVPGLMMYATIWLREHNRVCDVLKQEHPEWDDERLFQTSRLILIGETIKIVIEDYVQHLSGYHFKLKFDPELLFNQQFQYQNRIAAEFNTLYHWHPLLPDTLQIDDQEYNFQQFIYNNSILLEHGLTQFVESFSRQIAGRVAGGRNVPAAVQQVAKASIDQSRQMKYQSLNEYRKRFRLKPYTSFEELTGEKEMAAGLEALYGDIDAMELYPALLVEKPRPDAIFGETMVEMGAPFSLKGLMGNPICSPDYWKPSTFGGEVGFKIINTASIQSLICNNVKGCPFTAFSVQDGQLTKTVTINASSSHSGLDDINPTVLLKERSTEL

SMILES: CC(C(=O)O)c1ccc2c(c1)[nH]c1ccc(Cl)cc12 (racemic) [Carprofen (rac.), 6-chloro-α-methyl-9H-carbazole-2-acetic acid]
- Plasma concentration ([1]; 2 mg/kg PO tablet, 2-hour): 21.9 µg/mL and 8.6 µg/mL and 17.2 µg/mL
- Plasma concentration ([1]; 2 mg/kg PO tablet, 4-hour): 13.4 µg/mL and 5.7 µg/mL and 10.6 µg/mL
- Plasma concentration ([1]; 4 mg/kg PO tablet, 2-hour): 29.9 µg/mL and 29.0 µg/mL
- Plasma concentration ([1]; 4 mg/kg PO tablet, 4-hour): 21.1 µg/mL and 27.0 µg/mL
- concentration at 2 h ([1]; dog, plasma, oral, 4 mg/kg, 4 mg/kg PO tablet, 2-hour): 37.6 µg/mL
- concentration at 4 h ([1]; dog, plasma, oral, 4 mg/kg, 4 mg/kg PO tablet, 4-hour): 29.1 µg/mL
- TXB2 Pg/mL/Well ([2]; 2 mg/kg PO capsule, 0-hour (pre-dose)): 72 Pg/mL/Well
- TXB2 Pg/mL/Well ([2]; 2 mg/kg PO capsule, 1-hour post-dose): 75 Pg/mL/Well
- TXB2 Pg/mL/Well ([2]; 2 mg/kg PO capsule, 3-hour post-dose): 66 Pg/mL/Well
- TXB2 Pg/mL/Well ([2]; 2 mg/kg PO capsule, 6-hour post-dose): 46 Pg/mL/Well
- TXB2 Pg/mL/Well ([2]; 10 mg/kg PO capsule, 0-hour (pre-dose)): 51 Pg/mL/Well
- TXB2 Pg/mL/Well ([2]; 10 mg/kg PO capsule, 1-hour post-dose): 31 Pg/mL/Well
- TXB2 Pg/mL/Well ([2]; 10 mg/kg PO capsule, 3-hour post-dose): 6 Pg/mL/Well
- TXB2 Pg/mL/Well ([2]; 10 mg/kg PO capsule, 6-hour post-dose): 7 Pg/mL/Well
- inhibition at 2 mg/kg ([2]; 2 mg/kg PO capsule, 1-hour): 0%
- inhibition at 2 mg/kg ([2]; 2 mg/kg PO capsule, 3-hour): 8%
- inhibition at 2 mg/kg ([2]; 2 mg/kg PO capsule, 6-hour): 36%
- inhibition at 10 mg/kg ([2]; 10 mg/kg PO capsule, 1-hour): 39%
- inhibition at 10 mg/kg ([2]; 10 mg/kg PO capsule, 3-hour): 88%
- inhibition at 10 mg/kg ([2]; 10 mg/kg PO capsule, 6-hour): 86%
- ex vivo COX-1 inhibition of TXB2 [3]: no inhibition of TXB2
- systemic clearance Cl [4]: 5 mL/hr per lb body weight
- ulcerogenic potential, times less than indomethacin [5]: 16 times
- PGE2 Pg/mL/Well ([6]; 0-hour): 6.5 Pg/mL/Well
- PGE2 Pg/mL/Well ([6]; 5-hour): 1.9 Pg/mL/Well
- PGE2 Pg/mL/Well ([6]; 24-hour): 3.2 Pg/mL/Well
- inhibition at 2 mg/kg ([6]; read-out: In vivo COX-2 activity Percent Inhibition, 2 mg/kg PO, 5-hour after carrageenan, group average): 71%
- inhibition at 2 mg/kg ([6]; read-out: In vivo COX-2 activity Percent Inhibition, 2 mg/kg PO, 24-hour after carrageenan, group average): 51%
